From US11352341B2, “2H-indazole derivatives as CDK4 and CDK6 inhibitors and therapeutic uses thereof” (Beta Pharma, Inc., priority 2018, dated 2022)
Counter-ions that a name gives are not always drawn.

What was measured:
Assay type in all cases: biochemical
Details in all cases: RB Protein 3 μM substrate, 33P-ATP 1 μM, 10-dose IC50 mode, 3-fold dilution starting at 0.1 μM
[1] = target: CDK6/cyclin D3 (Homo sapiens, UniProt Q00534); test: Radiometric 33P-ATP filter-binding kinase assay, CDK6/cyclin D3
Chain of CDK6/cyclin D3 (Q00534 whole entry, species assumed): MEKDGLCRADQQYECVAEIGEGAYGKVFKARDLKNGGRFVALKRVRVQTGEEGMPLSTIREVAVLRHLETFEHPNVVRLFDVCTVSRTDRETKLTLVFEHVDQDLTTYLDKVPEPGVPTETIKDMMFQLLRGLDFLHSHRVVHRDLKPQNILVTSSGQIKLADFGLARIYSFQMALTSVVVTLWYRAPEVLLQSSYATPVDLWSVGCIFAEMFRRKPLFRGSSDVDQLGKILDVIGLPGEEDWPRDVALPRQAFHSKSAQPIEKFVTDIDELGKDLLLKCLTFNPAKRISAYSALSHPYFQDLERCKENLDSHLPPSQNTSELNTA
Chain of CDK6/cyclin D3 (P30281 whole entry partner, species assumed): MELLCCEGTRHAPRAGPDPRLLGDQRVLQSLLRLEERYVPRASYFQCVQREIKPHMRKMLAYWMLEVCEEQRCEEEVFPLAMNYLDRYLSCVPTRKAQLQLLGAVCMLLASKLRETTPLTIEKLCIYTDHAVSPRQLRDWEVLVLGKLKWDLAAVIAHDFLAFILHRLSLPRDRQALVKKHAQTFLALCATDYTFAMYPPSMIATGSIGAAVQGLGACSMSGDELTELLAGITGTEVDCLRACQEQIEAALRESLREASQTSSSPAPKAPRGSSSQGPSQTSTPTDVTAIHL
Protocol: (§1) CDK4/cyclin D1, CDK4/cyclin D3, CDK6/cyclin D1, and CDK6/cyclin D3 were added to freshly prepared substrate solution (RB Protein, 3 μM) which was in freshly made reaction buffer (20 mM Hepes (pH 7.5), 10 mM MgCl2, 1 mM EGTA, 0.02% Brij35, 0.02 mg/mL BSA, 0.1 mM Na3VO4, 2 mM DTT, 1% DMSO) and gently mixed, respectively. Compound 1.HCl was tested in a 10-dose IC50 mode with 3-fold dilution starting at 0.1 μM. Compound 1.HCl was prepared and diluted in DMSO and was delivered into the kinases/substrate reaction mixture by Acoustic technology (Echo550; nanoliter range), then incubated for 20 min at room temperature. Then 33P-ATP (1 μM) was added into the reaction mixture to initiate the reaction. The kinase reaction was incubated at room temperature for 2 hours. The reactions were spotted onto P81 ion-exchange paper and radioactivity was detected by filter-binding method. The kinase activity data were expressed as the percent remaining kinase activity in test samples compared to vehicle (Dimethyl Sulfoxide) reactions. […] HCl were determined for all 4 kinases: CDK4/cyclin D1, CDK4/cyclin D3, CDK6/cyclin D1, and CDK6/cyclin D3 and are shown in Table 2, as compared with those of ethylated counterpart, namely N-(5-((4-ethylpiperazin-1-yl)methyl)pyridin-2-yl)-5-fluoro-4-(3-isopropyl-2-methyl-2H-indazol-5-yl)pyrimidin-2-amine, or compound 37. […]

[2] = target: CDK4/cyclin D3 (Homo sapiens, UniProt P11802); test: Radiometric 33P-ATP filter-binding kinase assay, CDK4/cyclin D3
Chain of CDK4/cyclin D3 (P11802 whole entry, species assumed): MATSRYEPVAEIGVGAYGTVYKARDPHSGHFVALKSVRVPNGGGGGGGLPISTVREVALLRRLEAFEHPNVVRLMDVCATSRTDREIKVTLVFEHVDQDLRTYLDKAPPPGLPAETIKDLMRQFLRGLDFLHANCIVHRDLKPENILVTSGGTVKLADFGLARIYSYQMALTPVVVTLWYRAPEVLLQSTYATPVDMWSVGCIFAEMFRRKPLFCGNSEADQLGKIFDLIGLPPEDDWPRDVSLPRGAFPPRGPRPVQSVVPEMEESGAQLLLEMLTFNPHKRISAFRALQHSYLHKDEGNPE
Chain of CDK4/cyclin D3 (P30281 whole entry partner, species assumed): as the sequence (P30281 whole entry partner, species assumed) above
Protocol: as §1

[3] = target: CDK6/cyclin D1 (Homo sapiens, UniProt Q00534); test: Radiometric 33P-ATP filter-binding kinase assay, CDK6/cyclin D1
Chain of CDK6/cyclin D1 (Q00534 whole entry, species assumed): as the sequence (Q00534 whole entry, species assumed) above
Chain of CDK6/cyclin D1 (P24385 whole entry partner, species assumed): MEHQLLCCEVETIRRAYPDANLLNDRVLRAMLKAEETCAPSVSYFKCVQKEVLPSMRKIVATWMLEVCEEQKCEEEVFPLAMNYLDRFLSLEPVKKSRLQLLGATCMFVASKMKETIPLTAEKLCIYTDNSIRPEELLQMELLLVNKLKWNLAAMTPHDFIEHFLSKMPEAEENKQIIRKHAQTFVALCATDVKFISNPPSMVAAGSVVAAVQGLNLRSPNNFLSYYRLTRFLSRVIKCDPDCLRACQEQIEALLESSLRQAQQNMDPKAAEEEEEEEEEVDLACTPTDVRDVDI
Protocol: as §1

[4] = target: CDK4/cyclin D1 (Homo sapiens, UniProt P11802); test: Radiometric 33P-ATP filter-binding kinase assay, CDK4/cyclin D1
Chain of CDK4/cyclin D1 (P11802 whole entry, species assumed): as the sequence (P11802 whole entry, species assumed) above
Chain of CDK4/cyclin D1 (P24385 whole entry partner, species assumed): as the sequence (P24385 whole entry partner, species assumed) above
Protocol: as §1

IC50 [1] | IC50 [2] | IC50 [3] | IC50 [4] | Structure (SMILES)
5.66 nM | 1.98 nM | 23.8 nM | 1.47 nM | CCN1CCN(Cc2ccc(Nc3ncc(F)c(-c4ccc5nn(C)c(C(C)C)c5c4)n3)nc2)CC1 [Compound 37, N-(5-((4-ethylpiperazin-1-yl)methyl)pyridin-2-yl)-5-fluoro-4-(3-isopropyl-2-methyl-2H-indazol-5-yl)pyrimidin-2-amine]
25.6 nM | 3.99 nM | 1.11 nM | 0.705 nM | CC(C)c1c2cc(-c3nc(Nc4ccc(CN5CCNCC5)cn4)ncc3F)ccc2nn1C [1•HCl, 5-Fluoro-4-(3-isopropyl-2-methyl-2H-indazol-5-yl)-N-(5-(piperazin-1-ylmethyl)pyridin-2-yl)pyrimidin-2-amine hydrochloride]
